From ChEMBL document CHEMBL1201862, “PubChem BioAssay data set” (2004)
Where “and” joins values, the source holds several entries; their conditions need not be identical. Equal entries are not always repeated.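 Following 48 hours of exposure in 96-well plates, responses at five concentrations were used to interpolate endpoints linearly. Here, GI50 denotes the concentration required for 50% inhibition of growth.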 Calls of active or inactive are those of the source. No stated cut-off is given here; in the data, active = GI50 up to about 1.1 µM and inactive = higher.

What was measured:
Experiment in all cases: DTP human tumour cell line panel, 48 h
SK-MEL-5 = test system: SK-MEL-5
CAKI-1 = test system: CAKI-1
HOP-62 = test system: HOP-62
HCC 2998 = test system: HCC 2998
UO-31 = test system: UO-31
SNB-19 = test system: SNB-19
SK-OV-3 = test system: SK-OV-3
RPMI-8226 = test system: RPMI-8226
A549 = test system: A549
SF-539 = test system: SF-539
M14 = test system: M14
SF-268 = test system: SF-268
HL-60 = test system: HL-60
NCI-H23 = test system: NCI-H23
UACC-62 = test system: UACC-62
K562 = test system: K562
KM-20L2 = test system: KM-20L2
IGROV-1 = test system: IGROV-1
HCT-116 = test system: HCT-116
MOLT-4 = test system: MOLT-4

Measured: GI50

CC#CC#C/C=C1\C=CC2(OC=CC2OC(C)=O)O1 (stereo unspecified)
inactive: SK-MEL-5 17.9 µM | CAKI-1 15.2 µM and > 10 µM | HOP-62 > 100 µM | HCC 2998 22 µM and 28 µM | UO-31 15.5 µM and 18.4 µM | SNB-19 > 100 µM and > 82.2 µM | SK-OV-3 > 100 µM and > 89.1 µM | RPMI-8226 23.2 µM | A549 35.2 µM and 32.7 µM | SF-539 25.5 µM and 20.7 µM | M14 29.8 µM and 18.4 µM | SF-268 23.7 µM and 19.4 µM | HL-60 20.2 µM and 10.4 µM | NCI-H23 15 µM and 11 µM | UACC-62 18.9 µM and 16.4 µM | K562 25.6 µM and 19 µM | KM-20L2 3.51 µM | IGROV-1 > 42.9 µM and 42 µM

Cc1cc(OCC(O)CO)ccc1Cl (stereo unspecified)
inactive: SK-MEL-5 > 100 µM | CAKI-1 > 100 µM | HOP-62 > 100 µM | HCC 2998 > 100 µM | UO-31 > 100 µM | SNB-19 > 100 µM | HCT-116 > 100 µM | SK-OV-3 > 100 µM | RPMI-8226 > 100 µM | A549 > 100 µM | SF-539 > 100 µM | M14 > 100 µM | SF-268 > 100 µM | HL-60 > 100 µM | NCI-H23 > 100 µM | UACC-62 > 100 µM | K562 > 100 µM | KM-20L2 > 100 µM | IGROV-1 > 100 µM | MOLT-4 > 100 µM

COC(=N)C(C)C
inactive: SK-MEL-5 > 100 µM | CAKI-1 > 100 µM | HOP-62 > 100 µM | HCC 2998 > 100 µM | UO-31 > 100 µM | SNB-19 > 100 µM | HCT-116 > 100 µM | SK-OV-3 > 100 µM | RPMI-8226 > 100 µM | A549 > 100 µM | SF-539 > 100 µM | M14 > 100 µM | SF-268 > 100 µM | HL-60 > 100 µM | NCI-H23 > 100 µM | UACC-62 > 100 µM | K562 > 100 µM | KM-20L2 > 100 µM | IGROV-1 > 100 µM | MOLT-4 > 100 µM

C=C1CCCC2[C@](C)(CC3=C(O)C(=O)C=C(OC)C3=O)[C@@H](C)CC[C@]12C (stereo partly specified)
inactive: SK-MEL-5 2.42 µM | CAKI-1 3.62 µM | HCC 2998 7.89 µM | HCT-116 3.71 µM | SK-OV-3 12.6 µM | RPMI-8226 2.74 µM | A549 2.86 µM | SF-539 2.79 µM | M14 1.81 µM | SF-268 4.31 µM | HL-60 2.4 µM | NCI-H23 3.05 µM | UACC-62 2.22 µM | K562 4.07 µM | KM-20L2 4.24 µM | IGROV-1 3.22 µM

O=[N+]([O-])c1ccc(CNC2=NNS(=O)(=O)c3ccccc32)cc1
inactive: SK-MEL-5 > 100 µM | CAKI-1 26.6 µM | HCC 2998 > 100 µM | UO-31 > 100 µM | SNB-19 > 100 µM | HCT-116 > 100 µM | RPMI-8226 34.5 µM | A549 > 100 µM | SF-539 > 100 µM | M14 > 100 µM | SF-268 > 100 µM | HL-60 79.3 µM | UACC-62 34.6 µM | K562 27 µM | KM-20L2 > 100 µM | IGROV-1 > 100 µM | MOLT-4 22.3 µM
